# Results taken from patent US10744087B2, “Method to slow ventricular rate” (InCarda Therapeutics, Inc., priority 2018, dated 2020).
# Structures can show the parent of a compound that is named as a salt. Where two headings read alike, the source gives them in different places.
# Legend:
# [1] = tested on: atrial arrhythmia; details: intravenous, 5 to 15 mg bolus doses; cited from earlier work
# [2] = tested on: pig models of induced atrial fibrillation; experiment: Left ventricular contractility (LV dP/dt) and mean arterial pressure before and after AF, atrial pacing 160 beats/min (Example 5); format: in vivo, male Yorkshire pigs; details: IT metoprolol 0.2 mg/kg
# Procedure: The catheters were positioned under fluoroscopic control. Electrograms were recorded from a decapolar electrode catheter positioned in the LV. Mean arterial pressure (MAP) was continuously recorded from a femoral arterial sheath. LV blood pressure was continuously monitored from a pigtail catheter. A catheter was introduced into the pericardial space via the right atrial appendage for delivery of intrapericardial acetylcholine. Atrial pacing at 160 beats/min was accomplished by delivering electrical stimuli to the right atrial catheter electrodes. Electrograms were monitored using a Prucka CardioLab workstation (GE Medical Systems, Milwaukee Wis.) from atrial and ventricular sites. For intratracheal instillation of metoprolol solution or sterile water, a 5 Fr angiography catheter was introduced into the trachea via the endotracheal tube, extending ˜1 cm past the tube, and its tip was positioned under fluoroscopy at the tracheal carina level. AF duration was compared starting at 2 min after AF was induced, when the IT instillation was administered. The average ventricular rate for each AF was obtained by the mean of six measurements of ventricular rate performed each 30 seconds between the IT delivery (sterile water or metoprolol instillation) and the AF conversion to sinus rhythm. Contractility (LV dP/dt) and MAP were recorded during atrial pacing at 160 beats/min before AF was induced and after it was terminated. Statistical analyses were performed using the SAS system (version 9.4) to apply ANOVA with post-hoc Dunnett's test for each time point. Data are reported as means±SEM. Statistical significance was assumed at p<0.05.
# [3] = tested on: pig models of induced atrial fibrillation; experiment: Intratracheal metoprolol in pig model of acetylcholine/burst-pacing induced atrial fibrillation (Example 5): AF duration, PR interval, dominant frequency, ventricular rate; format: in vivo, male Yorkshire pigs; details: for reduction of ventricular rate during AF: IT metoprolol 0.2 mg/kg vs baseline AF with sterile water
# Procedure: Experiments described herein (e.g., Examples 5-7) complied with the National Institutes of Health Guide for the Care and Use of Laboratory Animals as well as the Declaration of Helsinki. The protocol was approved by the institutional animal use committee of Beth Israel Deaconess Medical Center (Boston Mass.). The investigations were conducted in male Yorkshire pigs weighing 46±1.8 kg. The animals were preanesthetized with telazol (4.7 mg/kg, intramuscular) and subsequently were further anesthetized using alpha-chloralose (80-mg/kg IV bolus followed by 24-mg/kg/h continuous IV infusion). The pigs were intubated and ventilated at a constant rate of 12 breaths/min and tidal volume of 400 ml per stroke. The catheters were positioned under fluoroscopic control. Electrograms were recorded from a decapolar electrode catheter positioned in the LV. Mean arterial pressure (MAP) was continuously recorded from a femoral arterial sheath. LV blood pressure was continuously monitored from a pigtail catheter. A catheter was introduced into the pericardial space via the right atrial appendage for delivery of intrapericardial acetylcholine. Atrial pacing at 160 beats/min was accomplished by delivering electrical stimuli to the right atrial catheter electrodes. Electrograms were monitored using a Prucka CardioLab workstation (GE Medical Systems, Milwaukee Wis.) from atrial and ventricular sites. For intratracheal instillation of metoprolol solution or sterile water, a 5 Fr angiography catheter was introduced into the trachea via the endotracheal tube, extending ˜1 cm past the tube, and its tip was positioned under fluoroscopy at the tracheal carina level. Metoprolol solutions of 0.2 mg/kg for intratracheal instillation were prepared by dilution of stock solution of 15.3 mg/ml in saline, originally obtained from metoprolol in powder form by dilution in dimethyl sulfoxide (DMSO). Plasma samples were analyzed using a high-performance liquid chromatography tandem mass spectrometric assay at Climax Laboratories, Inc. (San Jose Calif.). AF was induced with 1 mL of a 102.5 mM solution of acetylcholine bolus delivered through the pericardial catheter, followed by saline flush (2 mL). Burst pacing at a cycle length of 178 ms was performed at 1 minute after intrapericardial administration of ACh. After AF initiation, lavage was carried out with 20 ml of saline. For the intratracheal instillation of metoprolol (2 ml of 0.2 mg/kg concentration followed by 3 ml of air in a 5 ml syringe), the agent was administered in a single “push” via the modified angiography catheter positioned in the endotracheal tube at the beginning of the inspiration phase after two minutes of consolidated atrial fibrillation. Sterile water (2 ml) was used as a placebo for intratracheal instillation in the baseline AF. A washout period of 30 to 60 min was allowed between inductions of each occurrence of AF. AF duration was compared starting at 2 min after AF was induced, when the IT instillation was administered. The average ventricular rate for each AF was obtained by the mean of six measurements of ventricular rate performed each 30 seconds between the IT delivery (sterile water or metoprolol instillation) and the AF conversion to sinus rhythm. Contractility (LV dP/dt) and MAP were recorded during atrial pacing at 160 beats/min before AF was induced and after it was terminated. Statistical analyses were performed using the SAS system (version 9.4) to apply ANOVA with post-hoc Dunnett's test for each time point. Data are reported as means±SEM. Statistical significance was assumed at p<0.05.
# [4] = tested on: pig models with induced atrial fibrillation; experiment: Intratracheal nebivolol or metoprolol, alone or combined with flecainide, in pig models with induced atrial fibrillation (Example 6); format: in vivo, male Yorkshire pigs
# Procedure: The investigations were conducted in male Yorkshire pigs. The animals were preanesthetized with telazol (4.7 mg/kg, intramuscular) and subsequently were further anesthetized using alpha-chloralose (80-mg/kg IV bolus followed by 24-mg/kg/h continuous IV infusion). The pigs were intubated and ventilated at a constant rate of 12 breaths/min and tidal volume of 400 ml per stroke.
# The catheters were positioned under fluoroscopic control. Electrograms were recorded from a decapolar electrode catheter positioned in the LV. Mean arterial pressure (MAP) was continuously recorded from a femoral arterial sheath. LV blood pressure was continuously monitored from a pigtail catheter. A catheter was introduced into the pericardial space via the right atrial appendage for delivery of intrapericardial acetylcholine. Atrial pacing at 160 beats/min was accomplished by delivering electrical stimuli to the right atrial catheter electrodes. Electrograms were monitored using a Prucka CardioLab workstation (GE Medical Systems, Milwaukee Wis.) from atrial and ventricular sites. For intratracheal instillation of metoprolol solution or sterile water, a 5 Fr angiography catheter was introduced into the trachea via the endotracheal tube, extending ˜1 cm past the tube, and its tip was positioned under fluoroscopy at the tracheal carina level.
# Metoprolol obtained in powder form was used to prepare a stock solution of 15.3 mg/ml by dissolving the drug in 100% dimethyl sulfoxide (DMSO). A volume was withdrawn from the stock solution to achieve a 2 mg/kg IT dose and was supplemented with sterile water to attain a 2 ml total volume for bolus injection.
# For Nebivolol (racemic mixtures of d- and l-nebivolol), a stock solution of 25 mg/ml was prepared by dissolving the drug in 100% DMSO. The dose was 0.3 mg/kg for intratracheal instillation. The corresponding volume was withdrawn from the stock solution based on body weight of the pig, and the allocated volume was completed with sterile water to attain 2 ml total volume. The administration was made with a 5 cc syringe with 2 ml of 0.3 mg/kg nebivolol solution and 3 ml of air.
# AF was induced with 1 mL of a 102.5 mM solution of acetylcholine bolus delivered through the pericardial catheter, followed by saline flush (2 mL). Burst pacing at a cycle length of 178 ms was performed at 1 minute after intrapericardial administration of ACh. After AF initiation, lavage was carried out with 20 mL of saline.
# For the intratracheal instillation of metoprolol (0.2 mg/kg or 0.4 mg/kg), nebivolol (0.3 mg/kg), flecainide (0.75 mg/kg), or cocktail of metoprolol and flecainide (0.2 mg/kg and 0.75 mg/kg, respectively), the drug agent was administered in 2 mL total volume in a single “push” of 2-3 seconds, followed by 3 ml of air in a 5 ml syringe, via the […] Sterile water (2 ml) was used as a placebo for intratracheal instillation in the baseline AF. A washout period of 30 to 60 min was allowed between inductions of each occurrence of AF.
# AF duration was compared starting at 2 min after AF was induced, when the IT instillation was administered. The average ventricular rate for each AF was obtained by the mean of six measurements of ventricular rate performed each 30 seconds between the IT delivery (sterile water or metoprolol instillation) and the AF conversion to sinus rhythm.
# For the study of nebivolol, in 2 of the 4 animals that were tested, at 60 min following nebivolol administration, flecainide was administered to test the effect of combined use of nebivolol and flecainide. For the study of metoprolol, given that metoprolol can have a short half-life in vivo, the effect of combined use of metoprolol and flecainide was tested by giving a second IT dose of metoprolol-flecainide cocktail 60 min following the first IT dose of metoprolol in the animals.
# [5] = tested on: animal models of AF; experiment: Intratracheal co-delivery of metoprolol and flecainide in pig AF models (Example 7); format: in vivo, male Yorkshire pigs
# Procedure: Experimental animal models of AF (male Yorkshire pigs), and study reagents (metoprolol and flecainide) were prepared according to similar procedures described in Examples 5 and 6. In this example, the animals received IT administration of either metoprolol alone (0.2 mg/kg or 0.4 mg/kg), a cocktail of metoprolol and flecainide (0.2 mg/kg and 0.75 mg/kg, respectively, or 0.4 mg/kg and 0.75 mg/kg, respectively), or flecainide alone (0.75 mg/kg).
# [6] = tested on: new onset atrial fibrillation or flutter; details: esmolol-treated patients with new onset atrial fibrillation or flutter; cited from earlier work
# [7] = cited from earlier work
# [8] = tested on: atrial fibrillation; details: given in oral pills; several studies (Ferreira 1997 review); cited from earlier work
# [9] = AF induced 30 min after IT nebivolol 0.3 mg/kg
compound,measurement,setting,value
"COCCc1ccc(OCC(O)CNC(C)C)cc1 (racemic) [metoprolol, (±) 1-(isopropylamino)-3-[p-(2-methoxyethyl)phenoxy]-2-propanol]",conversion rate of atrial arrhythmia,[1],13%
same,patients with rate reduced at least 25% or to less than 100 bpm,[1],68%
same,MAP after AF,"[2]; before AF 125±4.3, p=0.26, pacing 160 beats/min",118±4.0
same,contractility (LV dP/dt) after AF conversion,"[2]; before AF 2337±252.7, pacing 160 beats/min",1951±277.9
same,change in MAP,[2]; before vs after AF,no significant changes
same,reduction in contractility (LV dP/dt) after conversion,"[2]; pacing 160 beats/min, p=0.006, not different from AF baseline reduction (p=0.85)",17.5±4.0%
same,occurrence of atrial flutter during conversion,[3]; IT metoprolol 0.2 mg/kg,In none of the animals did atrial flutter occur
same,reduction of ventricular rate during AF,[3],12±2.6%
same,reduction of ventricular rate during AF,[3]; p=0.007,32 beats/min
same,reduction of AF dominant frequency,"[3]; IT metoprolol 0.2 mg/kg vs baseline AF, p=0.04",31%
same,shortening of the AF duration,"[3]; IT metoprolol 0.2 mg/kg vs placebo baseline AF (sterile water IT), p=0.018",20.4±4.9%
same,AF dominant frequency,"[3]; IT metoprolol 0.2 mg/kg, baseline AF 8.7±0.94",6±1.1 Hz
same,ventricular rate during AF,"[3]; IT metoprolol 0.2 mg/kg, baseline AF 272±13.7",240±12.6 beats/min
same,AF duration,"[3]; IT metoprolol 0.2 mg/kg, placebo baseline 10.3±2.0, mean±SEM",8.0 ± 1.5 min
same,PR interval,"[3]; metoprolol 0.2 mg/kg bolus IT, from 174±11.2, p=0.07",182 ± 11.4 ms
same,increase in PR interval,"[3]; metoprolol 0.2 mg/kg bolus IT, trend, p=0.07",4%
same,reduction of ventricular rate during AF,[4]; AF 30 min after IT metoprolol 0.2 mg/kg,moderate
same,shortening of the AF duration,[4]; AF induced 30 min after IT metoprolol 0.2 mg/kg,about 36%
same,shortening of the AF duration,"[4]; AF induced right after IT metoprolol 0.2 mg/kg alone, vs placebo baseline AF",about 28%
same,reduction in ventricular rate during AF,"[4]; AF induced right after IT metoprolol 0.2 mg/kg, vs baseline AF",about 13%
same,reduction in the AF duration,[5]; IT 0.2 mg/kg metoprolol alone,about 20%
same,reduction in the average ventricular rate during the AF conversion,[5]; IT 0.2 mg/kg metoprolol alone,about 10%
same,reduction in the AF duration,[5]; IT 0.4 mg/kg metoprolol alone,about 27%
same,reduction in the average ventricular rate during the AF conversion,[5]; IT 0.4 mg/kg metoprolol alone,about 10%
COC(=O)CCc1ccc(OCC(O)CNC(C)C)cc1 (centres unmarked) [esmolol],patients converted to sinus rhythm,[6],about 50%
OC(CNCC(O)C1CCc2cc(F)ccc2O1)C1CCc2cc(F)ccc2O1 (centres unmarked) [Nebivolol hydrochloride],solubility,"[7]; in ethanol, propylene glycol, and polyethylene glycol",sparingly soluble
same,solubility,"[7]; in hexane, dichloromethane, and methylbenzene",very slightly soluble
same,solubility,"[7]; in methanol, dimethylsulfoxide, and N,N-dimethylformamide",soluble
CC(C)NCC(O)c1ccc(NS(C)(=O)=O)cc1 (centres unmarked) [soltalol],efficacy for acute conversion of atrial fibrillation to normal sinus rhythm,[8],8-49%
"OC(CNCC(O)C1CCc2cc(F)ccc2O1)C1CCc2cc(F)ccc2O1 (racemic) [nebivolol, 2,2′-Azanediylbis(1-(6-fluorochroman-2-yl)ethanol)]",water solubility,[7]; water,low water solubility
same,reduction in ventricular rate during AF,[4]; [9],about 22%
same,shortening of the AF duration,[4]; [9],about 33%
same,reduction in ventricular rate during AF,[4]; AF induced right after IT nebivolol 0.3 mg/kg,about 10%
same,shortening of the AF duration,"[4]; IT nebivolol 0.3 mg/kg, administered right before the AF induction, vs placebo baseline AF",about 24%
O=C(NCC1CCCCN1)c1cc(OCC(F)(F)F)ccc1OCC(F)(F)F (centres unmarked) [flecainide],reduction in the average ventricular rate during AF,[5]; IT 0.75 mg/kg flecainide alone,about 10%
